Laboratory results from patent US11905281B2 (Amgen Inc., priority 2017, dated 2024).
pIC50: −log10 of the molar value. Read-outs that look alike come from different tables or passages of the source.

Legend:
[1] = molecular target: T1, GDP-bound KRAS protein (aa 1-169), containing both G12C and C118A amino acid substitutions (Homo sapiens, UniProt P01116, C118A/G12C); experiment: Coupled Nucleotide Exchange Assay (Table 15 conditions: 2 hours pre-incubation); assay type: biochemical; details: 2 hours compound pre-incubation (Table 15 conditions)
Procedure: For compounds in Table 15, the following assay conditions were employed:
Following compound pre-incubation, purified SOS protein (aa 564-1049) and GTP (Roche 10106399001) were added to the assay wells and incubated for an additional hour. […] The assay plates were then read on a PerkinElmer EnVision Multilabel Reader, using AlphaScreen® technology, and data were analyzed using a 4-parameter logistic model to calculate IC50 values.

[2] = molecular target: T1, GDP-bound KRAS protein (aa 1-169), containing both G12C and C118A amino acid substitutions; experiment: Coupled Nucleotide Exchange Assay (Table 16 conditions: 5 min pre-incubation); assay type: biochemical; details: 5 min compound pre-incubation; SOS-mediated nucleotide exchange, AlphaScreen
Procedure: (§1) For compounds in Table 16, the following assay conditions were employed:
The assay plates were then read on a PerkinElmer EnVision Multilabel Reader, using AlphaScreen® technology, and data were analyzed using a 4-parameter logistic model to calculate IC50 values.

[3] = test system: Phosphorylation of ERK1/2 in MIA PaCa-2 cells; experiment: Phospho-ERK1/2 MSD Assay, MIA PaCa-2 (Table 16 conditions: 2 hours compound treatment); assay type: cell-based; details: 10 ng/mL EGF for 10 min, read-out: p-ERK IC50 (MIA PaCa-2)
Procedure: as §1
Sixteen hours prior to compound treatment, MIA PaCa-2 or A549 cells were seeded in 96-well cell culture plates at a density of 25,000 cells/well and incubated at 37° C., 5% CO2. A compound dose-response titration was diluted in growth media, added to appropriate wells of a cell culture plate, and then incubated at 37° C., 5% CO2 for 2 hours. […] Phosphorylation of ERK1/2 in compound-treated lysates was assayed using Phospho-ERK1/2 Whole Cell Lysate kits (Meso Scale Discovery K151DWD) according to the manufacturer's protocol. Assay plates were read on a Meso Scale Discovery Sector Imager 6000, and data were analyzed using a 4-parameter logistic model to calculate IC50 values.

[4] = Homo sapiens, MIA PaCa-2, MIA PaCa-2 cells

T1 sequence (P01116 1-169 isoform P01116-2 G12C/C118A): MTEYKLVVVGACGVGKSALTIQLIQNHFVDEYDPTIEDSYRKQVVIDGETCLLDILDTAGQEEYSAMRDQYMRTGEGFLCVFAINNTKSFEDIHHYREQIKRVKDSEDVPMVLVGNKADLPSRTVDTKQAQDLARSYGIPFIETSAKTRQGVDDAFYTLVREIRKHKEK

SMILES	Coupled exchange IC50 [1] [nM]	IC50 [2] [nM]	pIC50 [3, 4]	pIC50 ([3]; MIA PaCa-2 cells)	pIC50 [2]
C=CC(=O)N1CCN(c2snc3nc(-c4cc(OC)cc5ccccc45)c(Cl)cc23)C(C)C1 (racemic) [Example 2-4, 1-(4-(5-chloro-6-(3-methoxy-1-naphthalenyl)[1,2]thiazolo[3,4-b]pyridin-3-yl)-3-methyl-1-piperazinyl)-2-propen-1-one]	>250000				
C=CC(=O)N1CCN(c2nc(=O)n(-c3ccccc3C(C)C)c3cc(-c4c(O)cccc4F)c(Cl)cc23)[C@@H](C)C1 (single isomer, unassigned) [Example 8-3-2]	340				
C=C(CBr)C(=O)N1CCN(c2snc3c(F)c(-c4cc(O)cc5ccccc45)c(Cl)cc23)CC1 (single isomer, unassigned) [Example 18-2, 2-(bromomethyl)-1-(4-(5-chloro-7-fluoro-6-(3-hydroxy-1-naphthalenyl)-2,1-benzothiazol-3-yl)-1-piperazinyl)-2-propen-1-one]	760				
C=C(CO)C(=O)N1CCN(c2snc3c(F)c(-c4cc(O)cc5ccccc45)c(Cl)cc23)CC1 (single isomer, unassigned) [Example 18-3, 1-(4-(5-chloro-7-fluoro-6-(3-hydroxy-1-naphthalenyl)-2,1-benzothiazol-3-yl)-1-piperazinyl)-2-(hydroxymethyl)-2-propen-1-one]	24600				
C=CC(=O)N1CCN(c2snc3c(F)c(-c4cc(O)cc5ccccc45)c(Cl)cc23)[C@@H](C)C1 [Example 1-19-1, 1-((3S)-4-(5-chloro-7-fluoro-6-(3-hydroxy-1-naphthalenyl)-2,1-benzothiazol-3-yl)-3-methyl-1-piperazinyl)-2-propen-1-one]	115				
C=CC(=O)N1CCN(c2nc(=O)n(-c3ccccc3C(C)C)c3cc(-c4c(O)cccc4F)c(Cl)cc23)[C@@H](C)C1 [Example 8-3, 6-chloro-7-(2-fluoro-6-hydroxyphenyl)-4-((2S)-2-methyl-4-(2-propenoyl)-1-piperazinyl)-1-(2-(2-propanyl)phenyl)-2(1H)-quinazolinone]	283				
C=CC(=O)N1CCN(c2nc(=O)n(-c3ccccc3C(C)C)c3cc(-c4c(O)cccc4F)c(Cl)cc23)[C@@H](C)C1 [Example 8-3-1, 6-chloro-7-(2-fluoro-6-hydroxy-phenyl)-4-((2S)-2-methyl-4-(2-propenoyl)-1-piperazinyl)-1-(2-(2-propanyl)-phenyl)-2(1H)-quinazolinone]	282				
C=CC(=O)N1CCN(c2nnc(-c3ccccc3C(C)C)c3cc(-c4c(O)cccc4F)c(C)nc23)CC1 [Example 27, 1-(4-(3-(2-Fluoro-6-hydroxyphenyl)-2-methyl-5-(2-(2-propanyl)phenyl)pyrido[2,3-d]pyridazin-8-yl)-1-piperazinyl)-2-propen-1-one]	1280				
C=CC(=O)N1CCN(c2nc(=O)n(-c3c(C(C)C)ncnc3C(C)C)c3nc(-c4ccccc4F)c(Cl)cc23)[C@@H](C)C1 [Example 43, 6-Chloro-1-(4,6-di(2-propanyl)-5-pyrimidinyl)-7-(2-fluorophenyl)-4-((2S)-2-methyl-4-(2-propenoyl)-1-piperazinyl)pyrido[2,3-d]pyrimidin-2(1H)-one]		38	7.47		
C=CC(=O)N1CCN(c2nc(=O)n(-c3c(C)ccnc3C3CC3)c3nc(-c4c(O)cccc4F)c(Cl)cc23)[C@@H](C)C1 [Example 44-1]		33		7.60	
C=CC(=O)N1CCN(c2nc(=O)n(-c3c(C)ccnc3C3CC3)c3nc(-c4c(O)cccc4F)c(Cl)cc23)[C@@H](C)C1 [Example 44-2]		208		6.86	
C=CC(=O)N1CCN(c2nc(=O)n(-c3c(C)ccnc3C3CC3)c3nc(-c4c(O)cccc4F)c(Cl)cc23)[C@@H](C)C1 [Example 44]		103		7.19	
C=CC(=O)N1CCN(c2nc(=O)n(-c3c(C)ccnc3C3CC3)c3nc(-c4ccccc4F)c(Cl)cc23)[C@@H](C)C1 [Example 45, 6-Chloro-1-(2-cyclopropyl-4-methyl-3-pyridinyl)-7-(2-fluorophenyl)-4-((2A)-2-methyl-4-(2-propenoyl)-1-piperazinyl)pyrido[2,3-d]pyrimidin-2(1H)-one]				7.21	6.50
C=CC(=O)N1CCN(c2nc(=O)n(-c3c(C)ccnc3CC)c3nc(-c4ccccc4F)c(Cl)cc23)[C@@H](C)C1 [Example 46, 6-Chloro-1-(2-ethyl-4-methyl-3-pyridinyl)-7-(2-fluorophenyl)-4-((2S)-2-methyl-4-(2-propenoyl)-1-piperazinyl)pyrido[2,3-d]pyrimidin-2(1H)-one]		493		6.77	
C=CC(=O)N1CCN(c2nc(=O)n(-c3c(C)ccnc3CC)c3nc(-c4ccccc4F)c(Cl)cc23)[C@@H](C)C1 [Example 46-1, 6-chloro-1-(2-ethyl-4-methyl-3-pyridinyl)-7-(2-fluorophenyl)-4-((2S)-2-methyl-4-(2-propenoyl)-1-piperazinyl)pyrido-[2,3-d]pyrimidin-2(1H)-one]		170		6.90	
C=CC(=O)N1CCN(c2nc(=O)n(-c3c(C)ccnc3CC)c3nc(-c4ccccc4F)c(Cl)cc23)[C@@H](C)C1 [Example 46-2, 6-chloro-1-(2-ethyl-4-methyl-3-pyridinyl)-7-(2-fluorophenyl)-4-((2S)-2-methyl-4-(2-propenoyl)-1-piperazinyl)pyrido-[2,3-d]pyrimidin-2(1H)-one]		971		6.26	
C=CC(=O)N1CCN(c2nc(=O)n(-c3c(CC)ncnc3CC)c3nc(-c4ccccc4F)c(Cl)cc23)[C@@H](C)C1 [Example 47, 6-Chloro-1-(4,6-diethyl-5-pyrimidinyl)-7-(2-fluorophenyl)-4-((2S)-2-methyl-4-(2-propenoyl)-1-piperazinyl)pyrido[2,3-d]pyrimidin-2(1H)-one]		409	6.82		
C=CC(=O)N1CCN(c2nc(=O)n(-c3ccccc3C(C)(C)C)c3nc(-c4c(O)cccc4F)c(Cl)cc23)[C@@H](C)C1 [Example 49, 6-Chloro-7-(2-fluoro-6-hydroxyphenyl)-1-(2-(2-methyl-2-propanyl)phenyl)-4-((2S)-2-methyl-4-(2-propenoyl)-1-piperazinyl)pyrido[2,3-d]pyrimidin-2(1H)-one]		177		6.81	
C=CC(=O)N1CCN(c2nc(=O)n(-c3ccccc3C(C)C)c3nc(-c4ccccc4F)c(C)nc23)[C@@H](C)C1 [Example 51, 7-(2-Fluorophenyl)-6-methyl-4-((2A)-2-methyl-4-(2-propenoyl)-1-piperazinyl)-1-(2-(2-propanyl)phenyl)-2(1H)-pteridinone]				6.36	6.27
C=CC(=O)N1CCN(c2nc(=O)n(-c3c(C)cnn3C(C)C)c3nc(-c4ccccc4F)c(Cl)cc23)[C@@H](C)C1 [Example 53, 6-Chloro-7-(2-fluorophenyl)-1-(4-methyl-1-(2-propanyl)-1H-pyrazol-5-yl)-4-((2S)-2-methyl-4-(2-propenoyl)-1-piperazinyl)pyrido[2,3-d]pyrimidin-2(1H)-one]		125		7.15	
